IC50 data for 2 compounds are collected here from patent publication US20020058694A1, “Ureido and thioureido derivatives of 4-amino-2(5H)-furanones and 4-amino-2(5H)-thiophenones as antitumor agents” (Roche Diagnostics GmbH, priority 1997, published 2002).

In brackets after ≈: the same amount, converted by molar mass. Where only a bound is given, the exact number is not on record here.

Format in all cases: cell-based
Holding throughout (conditions): 144 hours of incubation, concentration which causes the death of 50% of cell population

The subject of one assay is HT 29. Description: MTT cytotoxicity assay, HT 29 human colon tumor cell line. As to the method: (§1) The compounds of the invention were tested against three human colon tumor cell lines (HT 29, HCT 116 and LoVo). After 144 hours of incubation of the cells with the compound to be tested, the cytotoxicity is evaluated using the MTT assay (Mosman, T. “Rapid Colorimetric Assay for Cellular Growth and Survival: Application to Proliferation and Cytotoxicity Assay”; J. Immunol. Methods, (1983), 65, 66; Green, L. M., “Rapid Colorimetric Assay for Cell Viability; Application to the Quantitation of Cytotoxic and Growth Inhibitory Lymphokines”, J. Immunol. Methods, (1984), 70, 257-268). The results are expressed as IC50 ([…]), that it the concentration of the tested compound which causes the death of 50% of cell population.

The next assay relates to LoVo. Description: MTT cytotoxicity assay, LoVo human colon tumor cell line. As to the method:
as §1
Background: Tetrazolium dyes change colour on reduction, which living cells bring about.

The test system of the next assay is HCT 116. Nature of the assay: MTT cytotoxicity assay, HCT 116 human colon tumor cell line. As to the method: as §1

Usually IC50 stands for the concentration at which inhibition is half-maximal. Read a high IC50 as lower potency. With `CCc1ccc(NC(=O)NC2=CC(=O)OC2)cc1Cl` [Example 3, 4-[N-(4-ethyl-3-chlorophenyl)aminocarbonylamino)-2(5H)-furanone], the IC50 in the assay on HT 29 is 0.003 µg/mL (≈ 0.0107 µM); in the assay with LoVo it was 0.034 µg/mL (≈ 0.121 µM); with HCT 116 it was less than 0.01 µg/mL.

In the case of `O=C(NC1=CC(=O)OC1)Nc1ccc(Cl)cc1` [Example 2, 4-[N-(4-chlorophenyl)aminocarbonylamino]-2(5H)-furanone], the IC50 in the assay with HT 29 is 0.032 µg/mL (≈ 0.127 µM); in the assay on LoVo it was 0.01 µg/mL (≈ 0.0396 µM); in the assay on HCT 116 it was 0.034 µg/mL (≈ 0.135 µM).
